# Literature values, collected in patent US20220152053A1, “METHODS AND COMPOSITIONS FOR TREATING VARIOUS DISORDERS” (Amylyx Pharmaceuticals, Inc., priority 2019, published 2022).
# Like-named read-outs stand apart in the source and are kept apart here.
# Tests used:
# subjects = details: prior human experience
# CD-1 mice = details: oral, 50, 250, and 1000 mg/kg/day, 2 years
# Sprague-Dawley rats = details: oral, 50, 250, and 1000 mg/kg/day, 2 years, males and females
# liver enzyme levels = details: in vivo
# cancer subjects = details: intravenous, 250-300 mg/kg/day for 14 days, repeated at 4-week intervals
# [1] = tested on: subjects with urea cycle disorders; details: for Other (rare) adverse events, frequency: gastrointestinal, hematologic, cardiovascular, renal, psychiatric, skin, miscellaneous
# ALS subjects = details: daily dosages between 9 and 21 grams, 20 weeks
# [2] = tested on: G93A SOD1 mouse model of ALS; details: in vivo
# rat = details: intrarectal instillation, 78 weeks
# CYP 1A2 = target: T1, CYP 1A2 (Homo sapiens, UniProt P05177); details: at 20 times the intended clinical concentration (Cmax)
# T1 sequence (P05177 1-516): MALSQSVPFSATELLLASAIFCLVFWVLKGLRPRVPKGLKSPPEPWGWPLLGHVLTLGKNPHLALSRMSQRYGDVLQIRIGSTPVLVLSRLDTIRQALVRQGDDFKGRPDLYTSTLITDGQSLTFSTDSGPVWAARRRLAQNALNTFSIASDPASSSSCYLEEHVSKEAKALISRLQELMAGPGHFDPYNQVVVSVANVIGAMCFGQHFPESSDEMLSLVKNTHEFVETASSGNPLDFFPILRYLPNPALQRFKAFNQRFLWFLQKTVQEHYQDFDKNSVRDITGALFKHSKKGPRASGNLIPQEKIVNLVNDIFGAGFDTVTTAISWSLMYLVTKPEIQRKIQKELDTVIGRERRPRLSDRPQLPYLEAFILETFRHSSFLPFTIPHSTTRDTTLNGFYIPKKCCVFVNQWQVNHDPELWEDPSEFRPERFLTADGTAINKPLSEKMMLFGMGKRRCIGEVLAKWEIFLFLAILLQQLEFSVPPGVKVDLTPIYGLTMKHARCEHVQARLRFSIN
# CYP 2D6 = CYP 2D6 (Homo sapiens, UniProt P10635); details: at 20 times the intended clinical concentration (Cmax)
# Chain of CYP 2D6 (P10635 whole entry): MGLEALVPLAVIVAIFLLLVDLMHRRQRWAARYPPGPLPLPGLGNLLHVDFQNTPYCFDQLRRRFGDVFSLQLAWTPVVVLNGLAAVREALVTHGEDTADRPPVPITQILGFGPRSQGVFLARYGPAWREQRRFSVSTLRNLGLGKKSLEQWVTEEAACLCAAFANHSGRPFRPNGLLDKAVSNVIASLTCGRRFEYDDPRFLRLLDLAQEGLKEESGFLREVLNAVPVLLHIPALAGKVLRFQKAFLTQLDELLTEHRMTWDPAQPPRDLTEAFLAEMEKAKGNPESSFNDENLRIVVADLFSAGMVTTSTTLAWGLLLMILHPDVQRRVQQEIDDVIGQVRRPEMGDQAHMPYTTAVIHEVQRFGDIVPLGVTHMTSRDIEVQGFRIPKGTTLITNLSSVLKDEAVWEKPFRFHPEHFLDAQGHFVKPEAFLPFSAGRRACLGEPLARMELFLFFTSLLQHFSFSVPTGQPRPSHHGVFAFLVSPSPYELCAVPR
compound,measurement,setting,value
"C[C@H](CCC(=O)NCCS(=O)(=O)O)[C@H]1CC[C@H]2[C@@H]3[C@@H](O)C[C@@H]4C[C@H](O)CC[C@]4(C)[C@H]3CC[C@]12C [TURSO, taurursodiol]","frequency of adverse reactions (abdominal discomfort, abdominal pain, diarrhea, nausea, pruritus, rash)",subjects,≥ 1%
same,"frequency of adverse reactions (abdominal discomfort, abdominal pain, diarrhea, nausea, pruritus, rash)",subjects; listed as TUDCA,> 1%
C[C@H](CCC(=O)O)[C@H]1CC[C@H]2[C@@H]3[C@@H](O)C[C@@H]4C[C@H](O)CC[C@]4(C)[C@H]3CC[C@]12C [Ursodeoxycholic acid],tumorigenicity,CD-1 mice,not tumorigenic
same,tumorigenicity,Sprague-Dawley rats,statistically significant dose-related increased incidences of pheochromocytomas of adrenal medulla
same,association with liver damage,liver enzyme levels,has not been associated with liver damage
"O=C(O)Cc1ccccc1 [phenylacetate, phenylacetic acid]",Neurotoxicity,cancer subjects,Neurotoxicity was reported
"O=C(O)CCCc1ccccc1 [phenylbutyrate, sodium phenylbutyrate]",Decreased appetite,[1]; all subjects,4%
same,"Other (rare) adverse events, frequency",[1],≤ 2%
same,"Other (rare) adverse events, frequency",[1]; listed as PB,< 2%
same,Body odor,"[1]; human, in vivo",3%
same,bad taste or taste aversion,"[1]; human, in vivo",3%
same,amenorrhea/menstrual dysfunction (irregular menstrual cycles),[1]; menstruating subjects,23%
same,safety and tolerability,ALS subjects,generally safe and tolerable
same,survival,[2],increase survival
C[C@H](CCC(=O)NCCS(=O)(=O)O)[C@H]1CC[C@H]2[C@@H]3CC[C@@H]4C[C@H](O)CC[C@]4(C)[C@H]3C[C@H](O)[C@]12C [tauro-deoxycholic acid],effect when co-administered with a carcinogenic agent,rat,tumor-promoting effect
same,"tumor production, bile acid alone",rat,did not produce any tumors
Phenylacetylacetate,inhibition of CYP 1A2,CYP 1A2,inhibitory
same,inhibition of CYP 2D6,CYP 2D6,inhibitory
